Test results reported in the supplement of paper PMC10307832.

Columns and labels:
Assay in all cases: relative viability (nuclei count vs DMSO), 5 days (fraction); higher = more cells survive
[1] = compound: C[C@]1(O)C[C@@H](c2nc(-c3ccc4ccc(-c5ccccc5)nc4c3)c3c(N)nccn32)C1 [Linsitinib] + CCNC(=O)c1noc(-c2cc(C(C)C)c(O)cc2O)c1-c1ccc(CN2CCOCC2)cc1 [Luminespib] (partner 0.01 µM)
Procedure, shortened: (§1)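 Five library-drug doses in √10 steps were combined with a fixed anchor-drug dose, or a single drug was given alone, by pin tool to lung cancer cell lines in 1536-well plates the day after seeding. Nuclei were stained and counted after 5 days. Relative viability is the nuclei count in treated wells over that in vehicle wells, taken as the median of duplicate plates.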

[2] = compound: C[C@]1(O)C[C@@H](c2nc(-c3ccc4ccc(-c5ccccc5)nc4c3)c3c(N)nccn32)C1 [Linsitinib] + NC(=O)Nc1cc(-c2cccc(F)c2)sc1C(=O)N[C@H]1CCCNC1 [AZD7762] (partner 0.2 µM)
Procedure, shortened: as §1

[3] = compound: Cc1ccc(C(=O)N(CCCN)[C@@H](c2nc3cc(Cl)ccc3c(=O)n2Cc2ccccc2)C(C)C)cc1 [Ispinesib] + CC(C)C[C@H](NC(=O)[C@H](Cc1ccccc1)NC(=O)c1cnccn1)B(O)O [Bortezomib] (partner 0.002 µM)
Procedure, shortened: as §1

[4] = compound: Cc1ccc(C(=O)N(CCCN)[C@@H](c2nc3cc(Cl)ccc3c(=O)n2Cc2ccccc2)C(C)C)cc1 [Ispinesib] + CS(=O)(=O)CCNCc1ccc(-c2ccc3ncnc(Nc4ccc(OCc5cccc(F)c5)c(Cl)c4)c3c2)o1 [Lapatinib] (partner 2 µM)
Procedure, shortened: as §1

Cell Line | relative viability ([1]; first compound 0.01 µM) | relative viability ([1]; first compound 0.03162 µM) | relative viability ([1]; first compound 0.1 µM) | relative viability ([1]; first compound 0.3162 µM) | relative viability ([1]; first compound 1 µM) | relative viability ([2]; first compound 0.01 µM) | relative viability ([2]; first compound 0.03162 µM) | relative viability ([2]; first compound 0.1 µM) | relative viability ([2]; first compound 0.3162 µM) | relative viability ([2]; first compound 1 µM) | relative viability ([3]; first compound 0.001 µM) | relative viability ([3]; first compound 0.003162 µM) | relative viability ([3]; first compound 0.01 µM) | relative viability ([3]; first compound 0.03162 µM) | relative viability ([3]; first compound 0.1 µM) | relative viability ([4]; first compound 0.001 µM) | relative viability ([4]; first compound 0.003162 µM) | relative viability ([4]; first compound 0.01 µM) | relative viability ([4]; first compound 0.03162 µM) | relative viability ([4]; first compound 0.1 µM)
RERF-LC-KJ | 1.12 | 1.15 | 1.42 | 1.13 | 1.1 | 0.254 | 1.02 | 0.905 | 0.419 | 0.71 | 1.05 | 1.16 | 1.09 | 0.905 | 0.597 | 1.02 | 0.835 | 0.931 | 0.831 | 0.304
CAL-12T | 0.469 | 0.303 | 0.515 | 0.303 | 0.355 | 0.67 | 0.595 | 0.734 | 0.577 | 0.743 | 0.961 | 1.4 | 0.955 | 0.579 | 0.184 | 0.625 | 0.692 | 0.742 | 0.488 | 0.235
NCI-H1993 | 0.751 | 0.852 | 0.835 | 0.794 | 0.498 | 0.734 | 0.773 | 0.623 | 0.509 | 0.513 | 1.23 | 1.14 | 1.1 | 1.03 | 0.585 | 0.871 | 0.899 | 0.764 | 0.759 | 0.58
LXF-289 | 0.759 | 0.669 | 0.729 | – | 0.544 | 1.04 | 1.04 | 1.13 | 0.731 | 1.04 | 0.993 | 0.992 | 1.14 | 0.799 | 0.118 | 0.872 | 0.909 | 1.01 | 0.634 | 0.118
NCI-H1792 | 0.427 | 0.52 | 0.371 | 0.297 | 0.328 | 0.74 | 0.684 | 0.539 | 0.326 | 0.277 | 1.14 | 1.02 | 1.09 | 0.797 | 0.337 | 0.876 | 1.05 | 0.843 | 0.418 | 0.314
LU99A | 0.272 | 0.25 | 0.231 | 0.241 | 0.216 | 0.285 | 0.435 | 0.371 | – | 0.196 | 1.06 | 1.12 | 1.33 | 0.223 | 0.183 | 0.992 | 1.11 | 1.14 | 0.192 | 0.201
NCI-H1755 | 0.41 | 0.244 | 0.419 | 0.327 | 0.469 | 0.454 | 0.421 | 0.531 | 0.657 | 0.363 | 0.975 | 1.07 | 1.01 | 0.605 | 0.249 | 1.02 | 1.16 | 1.09 | 0.41 | 0.203
LOU-NH91 | 0.357 | 0.355 | 0.299 | 0.244 | 0.298 | 0.763 | 0.701 | 0.742 | 0.693 | 0.58 | 0.507 | 0.507 | 0.575 | 0.444 | 0.395 | 0.785 | 0.799 | 0.779 | 0.447 | 0.271
EMC-BAC-2 | 1.07 | 1.2 | 1.26 | 1.01 | 0.95 | 1.12 | 1.07 | 1.1 | 0.775 | 0.553 | 1.06 | 1.13 | 1.27 | 0.671 | 0.214 | 0.936 | 0.933 | 1 | 0.724 | 0.233
EKVX | 0.844 | 0.842 | 0.87 | 0.688 | 0.684 | – | 0.662 | 0.717 | 0.707 | 0.631 | 1.09 | 1.24 | 1.15 | 0.939 | 0.186 | 0.208 | 0.206 | 0.204 | 0.223 | 0.131
NCI-H2085 | 0.36 | 0.425 | 0.379 | 0.402 | 0.407 | 0.916 | 0.837 | 1.04 | 0.896 | 0.939 | 1.08 | 1.08 | 1.18 | 0.818 | 0.484 | 0.721 | 0.857 | 0.81 | 0.444 | 0.314
NCI-H3122 | 0.0915 | 0.1 | 0.0744 | 0.0902 | 0.0925 | 0.985 | 0.992 | 0.968 | – | 0.765 | 1.07 | 0.945 | 1.09 | 1.06 | 0.202 | 0.986 | 1.01 | 1.07 | 0.72 | 0.21
HCC-827 | 0.733 | 0.599 | 0.648 | – | 0.657 | 0.151 | 0.223 | 0.207 | – | 0.221 | 1.1 | 1.18 | 1.04 | 0.691 | 0.875 | 0.194 | 0.194 | 0.181 | 0.189 | 0.0607
HARA | 0.715 | 0.828 | 0.945 | – | 0.173 | 0.355 | 0.237 | 0.344 | – | 0.179 | 1.37 | 1.21 | 1.42 | 0.931 | 0.211 | 0.8 | 0.856 | 0.987 | 0.151 | 0.144
HCC-15 | 0.218 | 0.296 | 0.271 | – | 0.34 | 1.07 | 1.15 | 1.16 | 0.839 | 1.11 | 1.14 | 1.19 | 1.24 | 0.563 | 0.226 | 0.91 | 0.983 | 1.03 | 0.402 | 0.14
ABC-1 | 0.544 | 0.392 | 0.604 | 0.519 | 0.312 | – | – | 0.765 | 0.861 | 0.602 | 0.269 | 0.317 | 0.302 | 0.197 | 0.273 | 1.06 | 1.18 | 1.19 | 1.03 | 0.766
